The target of this assay is T1, Human IP6K1 (Homo sapiens, UniProt Q92551).
T1 construct: GST (N, cleaved yes); made in house; host or cells: C43 E. coli, pGEX-6P-2
As to the kind of experiment: IP6K1 high-throughput screen of the Sigma LOPAC (ADP-Glo Max, single point).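 Further: final compound concentration 10µM in 5% DMSO.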 The format is biochemical.

Where [1] appears, read: LOPAC single-point screen, ADP-Glo Max raw signal per well.
The mark [2] stands for this setting: LOPAC single-point screen, Z-score from raw signal with plate average and StDev.
[3] abbreviates: LOPAC single-point screen, Z-score against plate average and StDev.
[4] abbreviates: Sigma LOPAC single-point screen, ADP-Glo Max raw signal per well.
Where [5] appears, read: Sigma LOPAC single-point screen, Z-score from plate average and StDev.
Where [6] appears, read: LOPAC single-point screen, ADP-Glo Max luminescence raw signal per well.
[7] abbreviates: LOPAC single-point screen, Z-score relative to plate average and StDev.
[8] abbreviates: LOPAC single-point screen, Z-score from plate average and StDev.

Counter-ions that a name gives are not always drawn. Like-named read-outs stand apart in the source and are kept apart here.

T1 sequence (Q92551 whole entry): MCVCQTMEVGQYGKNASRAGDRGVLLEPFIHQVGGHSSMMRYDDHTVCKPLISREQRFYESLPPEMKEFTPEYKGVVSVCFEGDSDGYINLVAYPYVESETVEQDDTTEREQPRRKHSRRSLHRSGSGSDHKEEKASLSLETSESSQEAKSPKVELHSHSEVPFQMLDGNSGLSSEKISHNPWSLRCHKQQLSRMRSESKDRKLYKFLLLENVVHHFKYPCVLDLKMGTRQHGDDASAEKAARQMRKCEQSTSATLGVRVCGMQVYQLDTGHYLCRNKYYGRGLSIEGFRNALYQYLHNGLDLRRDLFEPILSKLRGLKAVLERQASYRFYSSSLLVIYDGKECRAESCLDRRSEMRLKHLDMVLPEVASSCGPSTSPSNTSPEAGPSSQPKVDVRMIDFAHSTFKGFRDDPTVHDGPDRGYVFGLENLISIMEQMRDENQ

Turning to `COc1cc(/C=C(\C#N)C(=O)c2ccc(O)c(O)c2)cc(I)c1O` [I-OMe-Tyrphostin AG 538], the “Raw Signal” value under setting [1] was 53763. This molecule also displayed a Z-score under setting [2] of -0.4392.

As to `CCCCCCC(C)(C)c1ccc([C@@H]2C[C@H](O)CC[C@H]2CCCO)c(O)c1` [CP55940], under setting [1], the “Raw Signal” value is on record as 55459. For the same molecule, under setting [2], the Z-score is -0.4322. Turning to `CC1=C(/C=C/C(C)=C/C=C/C(C)=C/C=C/C=C(C)/C=C/C=C(C)/C=C/C2=C(C)C(=O)[C@@H](O)CC2(C)C)C(C)(C)C[C@H](O)C1=O` [Astaxanthin], under setting [1], the “Raw Signal” value was determined as 57440. For the same molecule, the Z-score under setting [3] is -0.08333. With `CC(NCCc1ccc(O)cc1)C(O)c1ccc(O)cc1` (centres unmarked) [Ritodrine hydrochloride], the “Raw Signal” value under setting [4] is 59316. Besides, the Z-score under setting [5] is 0.6396. As for `O=C(O)/C=C\C(=O)O.O=[N+]([O-])c1ccc2nc(N3CCNCC3)ccc2c1` [Quipazine, 6-nitro-, maleate], under setting [2], the Z-score is -0.2764. Take `CCNC(=O)N1CCN(CCCC(c2ccc(F)cc2)c2ccc(F)cc2)CC1` [Amperozide hydrochloride]: the “Raw Signal” value under setting [6] is 52806. Under setting [7], the Z-score is -0.8995.

Consider `C[N+]1(CCCCC[N+]2(C)CCCC2)CCCC1.O=C([O-])C(O)C(O)C(=O)O.O=C([O-])C(O)C(O)C(=O)O` [Pentolinium di[L(+)-tartrate]], for which, under setting [4], the “Raw Signal” value turned out to be 60160. Moreover, the Z-score under setting [5] was determined as 0.9689. As to `Br.CCCN(CCC)C1CCc2ccc(O)cc2C1` (racemic) [(±)-7-Hydroxy-DPAT hydrobromide], the “Raw Signal” value under setting [1] is given as 55055. This molecule registered a Z-score under setting [3] of -0.02275. As to `NCCCCNCCCN` [Spermidine trihydrochloride], the “Raw Signal” value under setting [4] is recorded as 60576. The molecule also registered a Z-score under setting [5] of 0.8844. With `CC(C)C1C2CCC(C2)C1N.Cl` (racemic) [AGN 192403 hydrochloride], the “Raw Signal” value under setting [6] came to 53820. In addition, under setting [7], the Z-score is -0.7209. As to `[H]/N=C(/NC)NCCC[C@H](N)C(=O)O` [NG-Monomethyl-L-arginine acetate], the “Raw Signal” value under setting [6] was 51513. Under setting [7], the Z-score is on record as -0.484. With `CN(C)CCCC1(c2ccc(F)cc2)OCc2cc(C#N)ccc21` (centres unmarked) [Citalopram hydrobromide], the “Raw Signal” value under setting [1] is 58251. In addition, the Z-score under setting [3] came out at 0.05951. Take `Cn1c(=O)[nH]c2ncn(C)c2c1=O` [1,7-Dimethylxanthine]: under setting [1], the “Raw Signal” value was found to be 53863. The molecule also yielded a Z-score under setting [2] of -0.2648. Turning to `Cc1nc2c(OCc3ccccc3)cccn2c1CC#N` [SCH-28080], under setting [6], the “Raw Signal” value stood at 49264. In addition, the Z-score under setting [7] is -1.199. `CO/N=C(\C(=O)N[C@@H]1C(=O)N2C(C(=O)O)=C(CSc3nc(=O)c(=O)[nH]n3C)CS[C@H]12)c1csc(N)n1` [Ceftriaxone sodium]: the “Raw Signal” value under setting [1] worked out at 55787. Under setting [2], this molecule had a Z-score of -0.3745. The matching figures for `CC1(C)CCC(NC(=O)[C@@H](N)CCC(=O)O)CC1` [CR 2249]: 52015 and -0.3997. `CC(C)(C)NCC(O)c1cc(O)cc(O)c1.CC(C)(C)NCC(O)c1cc(O)cc(O)c1.O=S(=O)(O)O` (centres unmarked) [Terbutaline hemisulfate]: under setting [4], the “Raw Signal” value was found to be 59192. The Z-score under setting [5] is given as 0.6155. Consider `O=C1CCC(N2C(=O)c3ccccc3C2=O)C(=O)N1` (racemic) [(±)-Thalidomide], for which the “Raw Signal” value under setting [1] is 54848. Under setting [2], this molecule registered a Z-score of -0.2284.

On to `Oc1cc(O)cc(/C=C/c2ccc(O)c(O)c2)c1` [Piceatannol], for which, under setting [6], the “Raw Signal” value was found to be 49635. The molecule also came in with a Z-score under setting [7] of -0.7996.

As for `Cc1ccc(O)c(N=Nc2ccccc2)n1` [SIB 1757], under setting [6], the “Raw Signal” value was determined as 46352. Besides, under setting [7], the Z-score is -1.879. Regarding `O=c1[nH]c2cc(Cl)c(Cl)cc2[nH]c1=O` [6,7-Dichloroquinoxaline-2,3-dione], the “Raw Signal” value under setting [1] is 56553. Moreover, the Z-score under setting [3] came to 0.2815. For the molecule `CN1CCN(C2=Nc3ccccc3Oc3ccc(Cl)cc32)CC1` [Loxapine succinate], under setting [1], the “Raw Signal” value came out at 54983. Moreover, the Z-score under setting [3] was 0.09905. With `CC(C)(C)C1(O)CCN2CC3c4ccccc4CCc4cccc(c43)C2C1.Cl` (racemic) [(±)-Butaclamol hydrochloride], under setting [4], the “Raw Signal” value is 57693. The same molecule showed a Z-score under setting [5] of 0.513. On to `CN(C)C(=O)Oc1cccc([N+](C)(C)C)c1` [Neostigmine bromide], for which, under setting [1], the “Raw Signal” value stood at 55937. Under setting [3], this molecule returned a Z-score of 0.2593. Taken in the same sequence, the figures for `CC1=C(/C=C/C(C)=C/C=C/C(C)=C/C(=O)Nc2ccc(O)cc2)C(C)(C)CCC1` [Retinoic acid p-hydroxyanilide] were 55637 and 0.09545. Take `CCCCC1(C2CCCC2)Cc2cc(OCC(=O)O)c(Cl)c(Cl)c2C1=O` (stereo in doubt) [R(+)-Butylindazone]: the “Raw Signal” value under setting [1] is reported as 53463. This molecule came in with a Z-score under setting [2] of -0.3461. On to `C=C(C)[C@H]1CN[C@H](C(=O)O)[C@H]1CC(=O)O` [Kainic acid], for which the “Raw Signal” value is listed as 54485 and the Z-score came out at 0.01537. As for `Oc1ccc2c3c1O[C@H]1c4[nH]c5ccccc5c4C[C@@]4(O)[C@@H](C2)N(CC2CC2)CC[C@]314` [Naltrindole hydrochloride], the “Raw Signal” value under setting [1] came to 53741. The Z-score under setting [2] is -0.1096. On to `Cc1cc(N)c2ccccc2[n+]1CCCCCCCCCC[n+]1c(C)cc(N)c2ccccc21` [Dequalinium dichloride], for which the “Raw Signal” value under setting [1] is recorded as 55705. The molecule also yielded a Z-score under setting [3] of 0.1093.

Take `Br.CN1CCc2cc(O)cc3c2[C@H]1Cc1ccc(O)c(O)c1-3`: the “Raw Signal” value under setting [6] was 51557. Besides, the Z-score under setting [7] is reported as -0.7332.

As to `CCCCCCCCCCCCCCCCCC(=O)OC(CC(=O)O)C[N+](C)(C)C.[Cl-]` (racemic) [DL-Stearoylcarnitine chloride], the “Raw Signal” value under setting [1] came to 55265. The molecule also displayed a Z-score under setting [2] of -0.1474. Turning to `CC(C)NC[C@H](O)COc1ccc(CC(N)=O)cc1` [S(-)-Atenolol], the “Raw Signal” value under setting [1] is recorded as 56960. Under setting [2], this molecule yielded a Z-score of -0.1679. Turning to `CCN1CCCC1CNC(=O)c1cc(S(N)(=O)=O)ccc1OC` (racemic) [(±)-Sulpiride], the “Raw Signal” value under setting [6] came out at 63231. Under setting [8], this molecule gave a Z-score of 1.4. Consider `CCCC(C)(COC(N)=O)COC(=O)NC(C)C` (centres unmarked) [Carisoprodol], for which, under setting [4], the “Raw Signal” value is listed as 61112. Also, under setting [5], the Z-score is reported as 0.5634. Regarding `CC(C)(Oc1ccc(C2CC2(Cl)Cl)cc1)C(=O)O` (centres unmarked) [Ciprofibrate], the “Raw Signal” value under setting [4] was found to be 63809. Moreover, the Z-score under setting [5] is 1.038. As to `CCCCCCCCCCCCCCSCC(=O)O` [Tetradecylthioacetic acid], the “Raw Signal” value under setting [1] worked out at 56618. Under setting [3], the Z-score is reported as 0.1154. The matching figures for `O=P(O)(O)C(Cl)(Cl)P(=O)(O)O` [Clodronic acid]: 56368 and 0.2439. Take `CCOC(=O)C1=C(C)NC(C)=C(C(=O)OC)C1c1cccc(Cl)c1Cl` (centres unmarked) [Felodipine]: the “Raw Signal” value under setting [6] amounted to 52611. The molecule further yielded a Z-score under setting [7] of -0.5191. Turning to `CCCNC(C)C(=O)Nc1ccccc1C` (centres unmarked) [Prilocaine hydrochloride], under setting [1], the “Raw Signal” value is given as 55610. This molecule also registered a Z-score under setting [3] of -0.08039. For `C[C@]12CCC(=O)C(O)=C1CC[C@@H]1[C@@H]2CC[C@]2(C)C(=O)CC[C@@H]12` [4-Androsten-4-ol-3,17-dione], the “Raw Signal” value under setting [6] came to 53811. This molecule registered a Z-score under setting [7] of -0.7225. For `Cl.NC(N)=NCCNS(=O)(=O)c1cccc2cnccc12` [HA-1004 hydrochloride], under setting [6], the “Raw Signal” value turned out to be 50838. The molecule also showed a Z-score under setting [7] of -0.8792. On to `CC(O)C(C)OC(=O)[C@@H]1C[C@@H]2c3cccc4c3c(cn4C(C)C)C[C@H]2N(C)C1.O=C(O)/C=C\C(=O)O` (some centres unmarked) [LY-53,857 maleate], for which the “Raw Signal” value under setting [4] was determined as 58270. Under setting [5], the Z-score was 0.6514.

On to `CCCN1CCc2cccc3c2[C@H]1Cc1ccc(O)c(O)c1-3.Cl` [R(-)-Propylnorapomorphine hydrochloride], for which the “Raw Signal” value under setting [6] is given as 49804. Also, the Z-score under setting [7] is recorded as -1.089.

As to `CNC(=O)[C@H]1O[C@@H](n2cnc3c(N)ncnc32)[C@H](O)[C@@H]1O` [5 -N-Methyl carboxamidoadenosine], the “Raw Signal” value under setting [6] was 66682. For the same molecule, under setting [8], the Z-score turned out to be 1.544. Consider `Cc1ccc(S(=O)(=O)NC(=O)NN2CCCCCC2)cc1` [Tolazamide], for which, under setting [6], the “Raw Signal” value is given as 64192. The molecule further displayed a Z-score under setting [8] of 1.587.

Regarding `OCCN1CCN(CCCN2c3ccccc3Sc3ccc(C(F)(F)F)cc32)CC1` [Fluphenazine dihydrochloride], under setting [4], the “Raw Signal” value came to 57313. Further, the Z-score under setting [5] worked out at 0.4358.

In the case of `Cc1nc2c([nH]1)c(=O)n(C)c(=O)n2Cc1ccco1` [Furafylline], the “Raw Signal” value under setting [1] amounted to 55994. Besides, the Z-score under setting [3] worked out at 0.1679. In the case of `CCCCCCCCCCCCCCCCCC(=O)NCC(COP(=O)([O-])OCC[N+](C)(C)C)OCC` (racemic), the “Raw Signal” value under setting [6] turned out to be 62966. Besides, under setting [8], the Z-score was 1.584. For `Cc1nc(N=Nc2cc(S(=O)(=O)[O-])c3cc([N+](=O)[O-])cc(S(=O)(=O)[O-])c3c2)c(COP(=O)([O-])[O-])c(C=O)c1O.[Na+].[Na+].[Na+].[Na+]` [PPNDS tetrasodium], under setting [6], the “Raw Signal” value came to 31816. The molecule also gave a Z-score under setting [7] of -3.794. `CC(C)(C)c1onc(OCP(=O)(O)O)c1CC(N)C(=O)O` (centres unmarked) [ATPO]: under setting [4], the “Raw Signal” value was 60120. The molecule also gave a Z-score under setting [5] of 0.3887. As for `CC(C)(C)NCC(O)c1ccc(O)c(CO)c1.CC(C)(C)NCC(O)c1ccc(O)c(CO)c1.O=S(=O)(O)O` (centres unmarked) [Albuterol hemisulfate], the “Raw Signal” value under setting [1] is given as 54773. Under setting [2], this molecule had a Z-score of -0.243.

The values above are taken from paper PMC5706701, “Development of a homogenous high-throughput assay for inositol hexakisphosphate kinase 1 activity” (PLoS ONE, 2017).
